For one assay, the system named is PC-12 cells. The assay is described as follows: Survival of PC-12 cells treated with cyclodextrin. Type of assay: cell-based. To be noted: 48 h, very high concentration (320 uM). On the procedure: PC-12 cells were treated with different concentrations of cyclodextrin for 48 h. The values are expressed as mean±SD of duplicate samples. This experiment was done to answer the question if any compound can kill tumor cells at high doses. B-Cyclodextrin is an inert compound and used as a vehicle for Progesterone.

Assay [1] relates to U87MG glioblastoma cell line. As to the kind of experiment: Morphology of glioblastoma cells, phase contrast microscope. The class given is cell-based, human. The following applies: high concentrations (40, 80 and 160 μM).
The subject of assay [2] is human neuroblastoma (SK-N-AS) cells. As to the kind of experiment: MTT cell viability, single 48 h exposure, neuroblastoma cells. The class given is cell-based. The following applies: single exposure 48 hours, at 5 μM and 10 μM, P<0.05 compared to control. On the procedure:
Data were evaluated by analysis of variance (ANOVA) followed by Dunnett test for individual comparisons. […] Values were expressed as means±SD of three experiments.
The human neuroblastoma cells (SK-N-AS) were cultured in a DMEM medium and E18 rat primary cortical neurons were cultured for 8-10 days in Neurobasal medium. […] An MTT reduction assay was used to estimate cell viability.

For another assay, the system named is breast cancer. The following applies: single injection of depot progesterone prior to breast cancer therapy, over 1000 women, 65 months after diagnosis and treatment; cited from earlier work.
In assay [3] the test system is human glioblastoma cell line U87dEGFR. The assay is described as follows: Cell viability, repeated exposure, glioblastoma-2 cells. Type of assay: cell-based. On the procedure:
(§1) Cells were exposed to different concentrations of PROG daily for 3 days and 6 days by replacing culture medium containing PROG. The stock solution of PROG was prepared in DMSO (Final concentration: <5 μl/ml medium). Data were analyzed using analysis of variance (ANOVA) followed by Dunnett's test. Values are expressed as Means±SD of two independent experiments with duplicate samples. Significant difference *P<0.05 when compared to control values.

The subject of assay [4] is human neuroblastoma xenograft. The assay is described as follows: Mouse xenograft model of human neuroblastoma. The class given is in vivo, female athymic nude mice. The following applies: after 8 days of treatment. From the text: The vehicle group received saline only. Data were normalized to the baseline values (day 1) and expressed as percent change in daily tumor growth. […] The vehicle group received saline only. Values are expressed as mean tumor size for the different animals in each group. The significance of results was set at P<0.05 two-tailed. Values are expressed as % change in Means±SEM of tumor volume in different groups. […] Tumors were allowed to grow to ˜200 to 250 mm^3 and mice were divided into groups. […] This regimen was planned to be continued for up to two weeks to examine maximum tumor burden. All treated animals are being compared to appropriate controls for analysis of rate of daily tumor growth, tumor volume and regression. Toxicity is being assessed daily by survival, activity and body weight.
(In general: In xenograft studies the graft and the host belong to different species.)

The test system of a further assay is neuroblastoma cells. The following applies: 10 μM; cited from earlier work.
Assay [5] concerns human glioblastoma cell line U87MG. The assay is described as follows: Cell viability, repeated exposure, glioblastoma-1 cells. Type of assay: cell-based. On the procedure:
as §1

Assay [6] has as its system human neuroblastoma (SK-N-AS) cells. As to the kind of experiment: Cell viability, repeated daily exposure for 3 and 6 days, neuroblastoma cells. Type of assay: cell-based. The following applies: 0.1-160 μM. On the procedure: Analysis of variance (ANOVA) followed by a Dunnett test was used to compare treatment groups to controls. […] Values were expressed as means±SD of three experiments.
FIG. 3 show the effects of PROG exposure for 3 and 6 days on the viability of Neuroblastoma cells (SK-N-AS). Cells were exposed to different concentrations of PROG (0.1, 1, 5, 10, 20, 80, 160 μM) daily for 3 days and 6 days. The statistical analysis of data was performed with analysis of variance (ANOVA) followed by Dunnett test to compare several treatment group to a single control group. The significance of results was set at P<0.05. Values are expressed as Means±SD of three experiments. Significant difference *P<0.05 when compared to control.

A further assay relates to glioblastoma. To be noted: first study; cited from earlier work.
Where [7] appears, read: repeated exposure 3 and 6 days, high doses.

For the molecule `OC[C@H]1O[C@@H]2O[C@H]3[C@H](O)[C@@H](O)[C@@H](O[C@H]4[C@H](O)[C@@H](O)[C@@H](O[C@H]5[C@H](O)[C@@H](O)[C@@H](O[C@H]6[C@H](O)[C@@H](O)[C@@H](O[C@H]7[C@H](O)[C@@H](O)[C@@H](O[C@H]8[C@H](O)[C@@H](O)[C@@H](O[C@H]1[C@H](O)[C@H]2O)O[C@@H]8CO)O[C@@H]7CO)O[C@@H]6CO)O[C@@H]5CO)O[C@@H]4CO)O[C@@H]3CO` [B-Cyclodextrin], the cell death entry in the assay on PC-12 cells was “could not induce cell death”.
Consider `CC(=O)[C@H]1CC[C@H]2[C@@H]3CCC4=CC(=O)CC[C@]4(C)[C@H]3CC[C@]12C` [progesterone, pregn-4-ene-3,20-dione], for which the “changes in cell morphology” value in assay [1] was “lose their original shape, become detached from the surface, and eventually die”. The “cell death (MTT cell viability)” value in [2] is reported as “significant cell death”. The reduction of mortality result in the assay on breast cancer was “more than 35%”. For the same molecule, the “effectiveness of six days versus 3 days of treatment” value in assay [3] (repeated exposure) and in [5] (repeated exposure) was “more effective than 3 days” throughout. The cell viability entry is listed as “killed both glioblastoma cell lines in a dose dependant manner” in assay [3] (setting [7]), “significant decrease in cell viability” in the assay with neuroblastoma cells and “killed both glioblastoma cell lines in a dose dependant manner” in assay [5] (setting [7]). Moreover, the “reduction of rate of tumor growth compared to saline vehicle” value in assay [4] (50 mg/kg peritumoral injection once daily) and in assay [4] (100 mg/kg peritumoral injection once daily) was around 50% throughout. Besides, the cell death entry in assay [6] (daily exposure for 3 days) is “significant (P<0.05) cell death in a concentration dependant manner”; in [6] (daily exposure for 6 days, concentration dependant), “cell death (P<0.05) was observed”.
Take “Avastin: Avastin (bevacizumab), FDA approved to treat glioblastoma at progression after standard therapy”: in the assay with glioblastoma, the “patients who survived for at least 6 months without disease progressing” value was 43%, the “patients who survived for at least one year” value is 38% and the “patients with tumor shrinkage” value is reported as 28%.

The values above are taken from patent publication US8778915B2, “Method for the treatment of central nervous system cancers and compositions related thereto” (Emory University, priority 2010, dated 2014).
